We go through 33 compounds from patent EP4563146A1 (IRBM S.P.A., priority 2023, dated 2025).

Molecules are shown by their SMILES. Read-outs that look alike come from different tables or passages of the source.

The subject of this assay is ZIKV replicon. The assay is described as follows: ZIKV replication inhibition assay (NanoLuc replicon in Vero cells). Particulars: Zika virus, Vero, 72 h.
Setting [1] is: read-out: ZIKA Cell_Nanoluc, Vero cells with stable ZIKV replicon, 72 h, Nano-Glo readout.

As for `Cc1ccc(CN2CCC(C(=O)Nc3cc(NC(=O)[N-]c4c[n+](Cc5ccccn5)no4)cc(C(F)(F)F)c3)CC2)o1` [Example 70], the EC50 (read-out: ZIKA Cell_Nanoluc) is greater than 20 µM.

Turning to `COc1ncc(-c2ccc(C[n+]3cc([N-]C(=O)Nc4cc(NS(=O)(=O)CC5CCCCC5)cc(C(F)(F)F)c4)on3)cc2)c(C)n1` [Example 2, ((3-((Cyclohexylmethyl)sulfonamido)-5-(trifluoromethyl)phenyl)carbamoyl)(3-(4-(2-methoxy-4-methylpyrimidin-5-yl)benzyl)-1,2,3-oxadiazol-3-ium-5-yl)amide], under setting [1], the EC50 is greater than 20 µM.

On to `CN1Cc2cc(C(=O)Nc3cc(NC(=O)[N-]c4c[n+](Cc5ccccn5)no4)cc(C(F)(F)F)c3)sc2C1` [Example 39], for which the EC50 (read-out: ZIKA Cell_Nanoluc) lay within 1 to 20 µM.

On to `Cn1cnnc1COCC(=O)Nc1cc(NC(=O)[N-]c2c[n+](Cc3ccccn3)no2)cc(C(F)(F)F)c1` [Example 72], for which the EC50 (read-out: ZIKA Cell_Nanoluc) is greater than 20 µM.

As for `NC1CC(C[n+]2cc([N-]C(=O)Nc3cc(NC(=O)Cc4ccccc4)cc(C(F)(F)F)c3)on2)C1` (stereo not drawn) [Example 118, (3-((3-Aminocyclobutyl)methyl)-1,2,3-oxadiazol-3-ium-5-yl)((3-(2-phenylacetamido)-5-(trifluoromethyl)phenyl)carbamoyl)amide], the EC50 under setting [1] fell in the range of 1 to 20 µM.

For `NC[C@H]1CC[C@@H](C[n+]2cc([N-]C(=O)Nc3cc(N4CCC(c5ccccc5)C4=O)cc(C(F)(F)F)c3)on2)CC1` (stereo partly drawn) [Example 133, (3-(((1S,4S)-4-(Aminomethyl)cyclohexyl)-methyl)-1,2,3-oxadiazol-3-ium-5-yl)((3-(2-oxo-3-phenylpyrrolidin-1-yl)-5-(trifluoromethyl)-phenyl)carbamoyl)amide], for the setting “read-out: ZIKA Cell_Nanoluc”, the EC50 fell in the range of 1 to 20 µM.

Take `CC(c1ccc(C(=O)Nc2cc(NC(=O)[N-]c3c[n+](Cc4ccccn4)no3)cc(C(F)(F)F)c2)cc1)S(N)(=O)=O` (stereo not drawn) [Example 78, (3-(Pyridin-2-ylmethyl)-1,2,3-oxadiazol-3-ium-5-yl)((3-(4-(1-sulfamoylethyl)-benzamido)-5-(trifluoromethyl)phenyl)carbamoyl)amide]: the EC50 under setting [1] was greater than 20 µM.

With `O=C([N-]c1c[n+](Cc2ccccn2)no1)Nc1cc(NC(=O)c2cc3n(n2)CCS(=O)(=O)C3)cc(C(F)(F)F)c1` [Example 64], the EC50 (read-out: ZIKA Cell_Nanoluc) is greater than 20 µM.

On to `C[C@@H]1C[C@H]1c1cc(NC(=O)Cc2ccccc2)cc(NC(=O)[N-]c2c[n+](Cc3ccccn3)no2)c1` [Example 130, ((3-((1R,2R)-2-Methylcyclopropyl)-5-(2-phenylacetamido)phenyl)-carbamoyl)(3-(pyridin-2-ylmethyl)-1,2,3-oxadiazol-3-ium-5-yl)amide], for which, under setting [1], the EC50 was 1 to 20 µM.

Turning to `O=C([N-]c1c[n+](Cc2ccccn2)no1)Nc1cc(NCCc2ccccc2)cc(C(F)(F)F)c1` [Example 53, ((3-(Phenethylamino)-5-(trifluoromethyl)-phenyl)carbamoyl)(3-(pyridin-2-ylmethyl)-1,2,3-oxadiazol-3-ium-5-yl)amide], the EC50 under setting [1] lay in the range of 1 to 20 µM.

Regarding `O=C(Cc1ccccc1)Nc1cc(NC(=O)[N-]c2c[n+](Cc3cccc(CN4C(=O)c5ccccc5C4=O)c3)no2)cc(C(F)(F)F)c1` [Example 107, (3-(3-((1,3-Dioxoisoindolin-2-yl)methyl)benzyl)-1,2,3-oxadiazol-3-ium-5-yl)((3-(2-phenylacetamido)-5-(trifluoromethyl)phenyl)carbamoyl)amide], the EC50 under setting [1] fell in the range of 1 to 20 µM.

Regarding `N[C@H]1CC[C@@H](C[n+]2cc([N-]C(=O)Nc3cc(N4CCC(c5ccccc5)C4=O)cc(C(F)(F)F)c3)on2)CC1` (stereo partly drawn) [Example 131, (3-(((1S,4S)-4-Aminocyclohexyl)methyl)-1,2,3-oxadiazol-3-ium-5-yl)((3-(2-oxo-3-phenylpyrrolidin-1-yl)-5-(trifluoromethyl)-phenyl)carbamoyl)amide], the EC50 (read-out: ZIKA Cell_Nanoluc) fell in the range of 1 to 20 µM.

As for `COC(=O)Cc1ccc(C[n+]2cc([N-]C(=O)Nc3cc(NC(=O)Cc4ccccc4)cc(C(F)(F)F)c3)on2)cc1` [Example 109, (3-(4-(2-Methoxy-2-oxoethyl)benzyl)-1,2,3-oxadiazol-3-ium-5-yl)((3-(2-phenylacetamido)-5-(trifluoromethyl)phenyl)carbamoyl)amide], the EC50 under setting [1] was in the range of 0.1 to 1 µM.

As for `CC(C(=O)Nc1cc(NC(=O)[N-]c2c[n+](Cc3ccccn3)no2)cc(C(F)(F)F)c1)c1ccccc1` (stereo not drawn) [Example 32], the EC50 (read-out: ZIKA Cell_Nanoluc) fell in the range of 0.1 to 1 µM.

Consider `NCc1cccc(C[n+]2cc([N-]C(=O)Nc3cc(NC(=O)Cc4ccccc4)cc(C(F)(F)F)c3)on2)c1` [Example 108, (3-(3-(Aminomethyl)benzyl)-1,2,3-oxadiazol-3-ium-5-yl)((3-(2-phenylacetamido)-5-(trifluoromethyl)phenyl)carbamoyl)amide], for which the EC50 under setting [1] was in the range of 1 to 20 µM.

For `O=C([N-]c1c[n+](Cc2ccccn2)no1)Nc1cc(NC(=O)c2cnccn2)cc(C(F)(F)F)c1` [Example 45], where the note is “read-out: ZIKA Cell_Nanoluc”, the EC50 was 1 to 20 µM.

In the case of `O=C(CC1CC2CC1C2)Nc1cc(NC(=O)[N-]c2c[n+](Cc3ccccn3)no2)cc(C(F)(F)F)c1` (stereo not drawn) [Example 63, ((3-(2-(Bicyclo[2.1.1]hexan-2-yl)acetamido)-5-(trifluoromethyl)phenyl)carbamoyl)(3-(pyridin-2-ylmethyl)-1,2,3-oxadiazol-3-ium-5-yl)amide], the EC50 under setting [1] is 1 to 20 µM.

`C=CCOC(=O)C[n+]1cc([N-]C(=O)Nc2cc(NC(=O)Cc3ccccc3)cc(C(F)(F)F)c2)on1` [Example 97, (3-(2-(Allyloxy)-2-oxoethyl)-1,2,3-oxadiazol-3-ium-5-yl)((3-(2-phenylacetamido)-5-(trifluoromethyl)phenyl)carbamoyl)amide]: the EC50 under setting [1] is greater than 20 µM.

As to `Cn1ccc(CC(=O)Nc2cc(NC(=O)[N-]c3c[n+](Cc4ccccn4)no3)cc(C(F)(F)F)c2)n1` [Example 40], the EC50 (read-out: ZIKA Cell_Nanoluc) was in the range of 1 to 20 µM.

As for `N#Cc1ccc2nc(C(=O)Nc3cc(NC(=O)[N-]c4c[n+](Cc5ccccn5)no4)cc(C(F)(F)F)c3)cn2c1` [Example 37], for the setting “read-out: ZIKA Cell_Nanoluc”, the EC50 fell in the range of 1 to 20 µM.

In the case of `O=C(C#Cc1ccccc1)Nc1cc(NC(=O)[N-]c2c[n+](Cc3ccccn3)no2)cc(C(F)(F)F)c1` [Example 46], the EC50 (read-out: ZIKA Cell_Nanoluc) lay in the range of 1 to 20 µM.

Consider `O=C(CCOC1CCCC1)Nc1cc(NC(=O)[N-]c2c[n+](Cc3ccccn3)no2)cc(C(F)(F)F)c1` [Example 73], for which, where the note is “read-out: ZIKA Cell_Nanoluc”, the EC50 fell in the range of 1 to 20 µM.

`O=C(Cc1ccc(=O)[nH]c1)Nc1cc(NC(=O)[N-]c2c[n+](Cc3ccccn3)no2)cc(C(F)(F)F)c1` [Example 123, ((3-(2-(6-Oxo-1,6-dihydropyridin-3-yl)acetamido)-5-(trifluoromethyl)phenyl)-carbamoyl)(3-(pyridin-2-ylmethyl)-1,2,3-oxadiazol-3-ium-5-yl)amide]: the EC50 under setting [1] is greater than 20 µM.

As to `O=C([N-]c1c[n+](C[C@H]2CC[C@H](NCC(F)(F)F)CC2)no1)Nc1cc(N2CCC(c3ccccc3)C2=O)cc(C(F)(F)F)c1` (stereo partly drawn) [Example 137, ((3-(2-Oxo-3-phenylpyrrolidin-1-yl)-5-(trifluoromethyl)phenyl)carbamoyl)(3-(((1R,4R)-4-((2,2,2-trifluoroethyl)amino)-cyclohexyl)methyl)-1,2,3-oxadiazol-3-ium-5-yl)amide], the EC50 (read-out: ZIKA Cell_Nanoluc) is 0.1 to 1 µM.

For `O=C(Cc1ccccc1)Nc1cc(NC(=O)[N-]c2c[n+](Cc3ccc(CO)cn3)no2)cc(C2CC2)c1` [Example 129, ((3-Cyclopropyl-5-(2-phenylacetamido)phenyl)-carbamoyl)(3-((5-(hydroxymethyl)pyridin-2-yl)methyl)-1,2,3-oxadiazol-3-ium-5-yl)amide], the EC50 under setting [1] fell in the range of 1 to 20 µM.

For `O=C(Cc1ccc2nc[nH]c2c1)Nc1cc(NC(=O)[N-]c2c[n+](Cc3ccccn3)no2)cc(C(F)(F)F)c1` [Example 124, ((3-(2-(1H-Benzo[d]imidazol-6-yl)acetamido)-5-(trifluoromethyl)phenyl)carbamoyl)(3-(pyridin-2-ylmethyl)-1,2,3-oxadiazol-3-ium-5-yl)amide], the EC50 under setting [1] was greater than 20 µM.

Turning to `Cc1oc(-c2ccccc2)nc1CC(=O)Nc1cc(NC(=O)[N-]c2c[n+](Cc3ccccn3)no2)cc(C(F)(F)F)c1` [Example 33], where the note is “read-out: ZIKA Cell_Nanoluc”, the EC50 was 1 to 20 µM.

For the compound `O=C(CC1(N2CCCC2)COC1)Nc1cc(NC(=O)[N-]c2c[n+](Cc3ccccn3)no2)cc(C(F)(F)F)c1` [Example 86, (3-(Pyridin-2-ylmethyl)-1,2,3-oxadiazol-3-ium-5-yl)((3-(2-(3-(pyrrolidin-1-yl)oxetan-3-yl)acetamido)-5-(trifluoromethyl)phenyl)carbamoyl)amide], under setting [1], the EC50 was in the range of 1 to 20 µM.

Consider `O=C(Cn1c(C(F)F)nc2ccccc21)Nc1cc(NC(=O)[N-]c2c[n+](Cc3ccccn3)no2)cc(C(F)(F)F)c1` [Example 65], for which, for the setting “read-out: ZIKA Cell_Nanoluc”, the EC50 was greater than 20 µM.

Regarding `NC(=O)c1ccc(C[n+]2cc([N-]C(=O)Nc3cc(NC(=O)Cc4ccccc4)cc(C(F)(F)F)c3)on2)cc1` [Example 104, (3-(4-Carbamoylbenzyl)-1,2,3-oxadiazol-3-ium-5-yl)((3-(2-phenylacetamido)-5-(trifluoromethyl)phenyl)carbamoyl)amide], the EC50 under setting [1] was 1 to 20 µM.

In the case of `O=C(Cc1cccc2cn[nH]c12)Nc1cc(NC(=O)[N-]c2c[n+](Cc3ccccn3)no2)cc(C(F)(F)F)c1` [Example 126, ((3-(2-(1H-Indazol-7-yl)acetamido)-5-(trifluoromethyl)phenyl)carbamoyl)(3-(pyridin-2-ylmethyl)-1,2,3-oxadiazol-3-ium-5-yl)amide], the EC50 under setting [1] is greater than 20 µM.

`O=C(Cc1cc(NC(=O)[N-]c2c[n+](Cc3ccccn3)no2)cc(C(F)(F)F)c1)NCc1ccccc1` [Example 90, ((3-(2-(Benzylamino)-2-oxoethyl)-5-(trifluoromethyl)phenyl)carbamoyl)(3-(pyridin-2-ylmethyl)-1,2,3-oxadiazol-3-ium-5-yl)amide]: the EC50 under setting [1] was 1 to 20 µM.

For `O=C(Cc1ccccc1)Nc1cc(NC(=O)[N-]c2c[n+](Cc3ccccn3)no2)cc(C2CC2)c1` [Example 89, ((3-Cyclopropyl-5-(2-phenylacetamido)phenyl)carbamoyl)(3-(pyridin-2-ylmethyl)-1,2,3-oxadiazol-3-ium-5-yl)amide], under setting [1], the EC50 was 1 to 20 µM.
